Assays:
[1] = Solution for forming organic semiconductor layer: kept in solution state in toluene at 25° C.; type: physicochemical; settings: heated to 50° C. to dissolve, allowed to cool at room temperature (25° C.)
Description: In the air, in a 10 mL sample tube, 0.87 mg of 2,7-di(2-phenylethyl)dithienobiphenylene (Compound 1) synthesized in Example 1 and 434 mg of toluene (FUJIFILM Wako Pure Chemical Corporation, pure grade) was added and the resultant was heated to 50° C. to dissolve, and then allowed to cool at room temperature (25° C.) to thereby prepare a solution for forming an organic semiconductor layer.
The solution for forming an organic semiconductor layer was kept in a solution state after 10 hours at 25° C. (concentration of Compound 1: 0.20% by weight), confirming that this was a compound suitable for film formation by drop casting and inkjet.

[2] = Bottom gate-bottom contact p-type organic thin film transistor, transfer characteristics; settings: toluene solution, annealed at 130° C. for 10 min
Description: (§1) Furthermore, this organic thin film transistor was annealed at 130° C. for 10 min and then measured for an electric physical property.

[3] = Solution for forming organic semiconductor layer: kept in solution state in toluene at 25° C.; type: physicochemical; settings: .44 mg in 434 mg of toluene; heated to 50° C., allowed to cool at 25° C.
[4] = generally; cited from earlier work
[5] = Top gate-bottom contact p-type organic thin film transistor, transfer characteristics; settings: annealed at 130° C. for 10 min
Description: The solution for forming an organic semiconductor layer obtained in Example 2 was used to produce a top gate-bottom contact p-type organic thin film transistor.
as §1

Row | concentration of solution kept in a solution state after 10 hours at 25° C. [1] [% by weight] | Compound | also measured
1 | 0.40 | 2,7-di(2-(4-butylphenyl)ethyl)dithienobiphenylene [Compound 5] | –
2 | 0.20 | 2,7-di(2-(4-heptylphenyl)ethyl)dithienobiphenylene [Compound 6] | –
3 | 0.10 | 2,7-di(2-(4-propylphenyl)ethyl)dithienobiphenylene [Compound 4] | –
4 | 0.20 | CCCCCCCCc1ccc2c(c1)sc1c3ccc(CCCCCCCC)cc3sc21 [2,7-dioctyl[1]benzothieno[3,2-b][1]benzothiophene, reference compound] | degradation in performance due to heat treatment [2]: transistor operation was not achieved
5 | – | c1ccc(-c2ccc3c(c2)sc2c4ccc(-c5ccccc5)cc4sc32)cc1 [2,7-diphenyl[1]benzothieno[3,2-b][1]benzothiophene] | solution state after cooling to room temperature (solubility) [3]: a solid was deposited; solubility in an organic solvent [4]: almost insoluble
6 | 0.20 | CCCCCCCCc1cc2ccc3cc4c(ccc5cc(CCCCCCCC)sc54)cc3c2s1 [2,8-dioctylanthra[1,2-b:5,6-b′]dithiophene, reference compound] | –
7 | 0.20 | c1ccc(CCc2cc3ccc4c(c3s2)-c2ccc3cc(CCc5ccccc5)sc3c2-4)cc1 [Compound 1, 2,7-di(2-phenylethyl)dithienobiphenylene] | degradation in performance due to heat treatment [5]: almost no degradation in performance; melting point: 195 °C; degradation in performance due to heat treatment [2]: almost no degradation in performance
8 | 0.20 | c1ccc(CCc2cc3ccc4cc5c(ccc6cc(CCc7ccccc7)sc65)cc4c3s2)cc1 [Compound 10, 2,8-di(2-phenylethyl)anthra[1,2-b:5,6-b′]dithiophene] | –
9 | 1.00 | c1ccc(CCc2cc3ccc4c(c3s2)-c2ccc3ccsc3c2-4)cc1 [Compound 13, 2-(2-phenylethyl)dithienobiphenylene] | melting point: 161 °C
10 | 1.00 | Cc1ccc(CCc2cc3ccc4c(c3s2)-c2ccc3ccsc3c2-4)cc1 [Compound 14, 2-(2-(4-methylphenyl)ethyl)dithienobiphenylene] | –
11 | 0.40 | c1ccc(CCc2cc3ccc4cc5c(ccc6ccsc65)cc4c3s2)cc1 [Compound 15, 2-(2-phenylethyl)anthra[1,2-b:5,6-b′]dithiophene] | –
12 | 0.50 | Cc1ccc(CCc2cc3ccc4cc5c(ccc6ccsc65)cc4c3s2)cc1 [Compound 16, 2-(2-(4-methylphenyl)ethyl)anthra[1,2-b:5,6-b′]dithiophene] | –
13 | 1.00 | CCCCc1ccc(CCc2cc3ccc4cc5c(ccc6ccsc65)cc4c3s2)cc1 [Compound 17, 2-(2-(4-n-butylphenyl)ethyl)anthra[1,2-b:5,6-b′]dithiophene] | degradation in performance due to heat treatment [2]: almost no degradation in performance
14 | 0.20 | CCCCCCCc1ccc(CCc2cc3ccc4cc5c(ccc6ccsc65)cc4c3s2)cc1 [Compound 18, 2-(2-(4-n-heptylphenyl)ethyl)anthra[1,2-b:5,6-b′]dithiophene] | –
15 | 1.00 | CCCOc1ccc(CCc2cc3ccc4cc5c(ccc6ccsc65)cc4c3s2)cc1 [Compound 23, 2-(2-(4-propoxyphenyl)ethyl)anthra[1,2-b:5,6-b′]dithiophene] | –
16 | 0.10 | COc1ccc(CCc2cc3ccc4cc5c(ccc6ccsc65)cc4c3s2)cc1 [Compound 24, 2-(2-(4-methoxyphenyl)ethyl)anthra[1,2-b:5,6-b′]dithiophene] | –

— patent publication US20230142592A1, “AROMATIC COMPOUND, ORGANIC SEMICONDUCTOR LAYER AND ORGANIC THIN FILM TRANSISTOR” (TOSOH CORPORATION, priority 2020, published 2023)
